Paper PMC6539903 (Molecules, 2019)

Experiments:
COX-1 = biological target: T1, COX-1 (Homo sapiens, UniProt P23219); experiment: COX-1 inhibition assay (COX-1 ELISA kit); format: biochemical; settings: mean of four determinations; read-out: IC50 ± SD COX-1
T1 construct: purchased Cayman Chemical 701170
Experimental: (§1) 3-(4,5-Dimethylthiazol-2-yl)-2,5-diphenyltetrazolium (MTT) were purchased from Beyotime Institute of Biotechnology (Haimen, China). Annexcin V-FITC cell apoptosis assay kit (catalog No.BA11100) was purchased from BIO-BOX (Nanjing, China). Fibronectin (#F1056) and laminin (#L2020) were purchased from Sigma-Aldrich (St. Louis, MO, USA).
(§2) Then 1 M HCl was added to the reaction mixture to stop the reaction, and one-tenth of the volume of saturated stannous chloride (50 mg/mL) was added. The reaction mixture was incubated at room temperature for 5 min, and PGF2 and PGH2 were produced.

COX-2 = biological target: T2, COX-2 (Homo sapiens, UniProt P35354); experiment: COX-2 inhibition assay (COX-2 ELISA kit); format: biochemical
T2 construct: purchased Cayman Chemical 701180
T2 sequence (P35354 18-604): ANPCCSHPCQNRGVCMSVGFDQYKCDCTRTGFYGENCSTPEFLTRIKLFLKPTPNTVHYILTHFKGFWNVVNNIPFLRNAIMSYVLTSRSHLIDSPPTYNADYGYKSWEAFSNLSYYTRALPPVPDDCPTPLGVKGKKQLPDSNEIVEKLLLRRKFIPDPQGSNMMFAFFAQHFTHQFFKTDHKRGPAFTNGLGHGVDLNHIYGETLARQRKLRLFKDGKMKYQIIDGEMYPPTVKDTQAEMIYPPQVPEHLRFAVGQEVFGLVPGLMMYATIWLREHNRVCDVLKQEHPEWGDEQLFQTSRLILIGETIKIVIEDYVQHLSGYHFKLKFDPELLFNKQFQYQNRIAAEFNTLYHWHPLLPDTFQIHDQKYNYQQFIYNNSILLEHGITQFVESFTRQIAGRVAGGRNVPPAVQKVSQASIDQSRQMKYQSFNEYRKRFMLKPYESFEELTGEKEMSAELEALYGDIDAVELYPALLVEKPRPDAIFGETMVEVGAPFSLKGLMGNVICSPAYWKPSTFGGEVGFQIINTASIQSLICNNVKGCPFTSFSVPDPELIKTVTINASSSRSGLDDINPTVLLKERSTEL
Experimental: as §1, §2

SW620 cells [1] = experiment: MTT antiproliferation assay, SW620; format: cell-based; settings: Homo sapiens, SW-620, 48 h, n = 3, read-out: IC50 ± SD SW620
Experimental: (§3) MCF-7 (human breast cell line), HeLa (human cervical cell line), A549 (human lung cell line), HepG2 (human liver cell line), SW620 (human colorectal cell line) and a non-cancer cell line, NCM460 (Human colonic epithelial cells) were preserved at the State Key Laboratory of Pharmaceutical Biotechnology, Nanjing University (Nanjing, China).
(§4) The antiproliferative activity of the synthetic compounds against the SW620, MCF-7, HeLa, A549, HepG2, and NUM460 cell lines was evaluated by a colorimetric assay based on a modified standard (MTT). […] Thereafter, MTT (5 mg/mL in PBS) was added to each well and incubated for 4 h. 150 μL of DMSO was added to each well and shaken with a shaker. The absorbance (OD 570 nm) was read at 630 nm on an ELISA reader (ELx800, BioTek, montpelier, VT, USA). IC50 values for the compounds were calculated by comparison to DMSO treated control wells. Three replicate wells were used for each drug concentration. Each assay was performed three times.

MCF-7 = experiment: MTT antiproliferation assay, MCF-7; format: cell-based; settings: Homo sapiens, MCF7, 48 h, n = 3, read-out: IC50 ± SD MCF-7
Experimental: as §3, §4

HeLa = experiment: MTT antiproliferation assay, HeLa; format: cell-based; settings: Homo sapiens, 48 h, n = 3, read-out: IC50 ± SD HeLa
Experimental: as §3, §4

A549 = experiment: MTT antiproliferation assay, A549; format: cell-based; settings: Homo sapiens, 48 h, n = 3, read-out: IC50 ± SD A549
Experimental: as §3, §4

HepG2 = experiment: MTT antiproliferation assay, HepG2; format: cell-based; settings: Homo sapiens, 48 h, n = 3, read-out: IC50 ± SD HepG2
Experimental: as §3, §4

[2] = MTT cytotoxicity assay, non-cancer colon cells; format: cell-based; settings: human, NCM460 colonic epithelial cells (non-cancer cell line), n = 3, non-cancer cell line, read-out: CC50 ± SD NUM460
Experimental: Besides, the MTT assay was performed on a non-cancer line NCM460 to assess the cytotoxicity of the test compound to normal colon cells.
as §3, §4

SW620 cells [3] = experiment: Cell apoptosis assay (Annexin V-FITC/PI flow cytometry); format: cell-based, human; settings: 24 h (0 μM: 7.9%)
Experimental: To confirm that antiproliferation activities of SW620 were associated with apoptosis, SW620 cell apoptosis induced by compound 4b was determined using flow cytometry with Annexin V-FITC/PI Apoptosis Detection Kit. […] The percentages of cell apoptosis 7.9%, 19.9%, 45.9%, and 65.0% were responding to the concentration of compound 4b 0 μM, 2.0 μM, 4.0 μM, and 8.0 μM, respectively.
SW620 cells were seeded in the 6-well plate ([…]) and treated with compound 4b to induce apoptosis at final concentrations of 0, 2, 4, and 8 μM for 24 h. After incubation, the cells were extracted with trypsin and washed with cold PBS twice. Cells are then bound to 500 μL buffer and then annexin-v/FITC (5 μL) and PI (5 μL) were added to the medium for another 10 min to incubate darkness. Staining cells were analyzed by flow cytometry (Becton Dickinson, Franklin, NJ, USA). Flowjo 7.6.1 software (Emerald Biotech Co. Ltd., Hangzhou, China) was used for statistical analysis.

[4] = test system: SW620 xenografts tumor model; experiment: SW620 xenograft model in vivo; settings: nude mice, 20 mg/kg intraperitoneal every 2 days, start about 100 mm^3
Experimental: In view of potent cox-2 selective inhibitory activity and anti-colon cancer proliferation activity in vitro, compound 4b was further evaluated for anti-colon cancer activity in vivo. SW620 cells (5 × 10^6) were subcutaneously injected into the rightwing nude mice to establish a xenograft model. […]. Intraperitoneal administration was performed every 2 days and tumor volume changes were recorded for 12 consecutive days. […]. After 12 days of treatment, the tumor volumes of the two treatment groups were 43.71 mm^3 and 51.69 mm^3, respectively. Finally, the tumors of each group were removed and weighed to calculate the ratio of tumor weight to body weight. […] In contrast, body weight increased slightly in the vehicle group at the later stage of treatment (Figure 5C). […] This series of representative compounds 4b, as a selective COX-2 inhibitor for the targeted therapy of colon cancer, had prominent research prospect.
Nude mice aged 6-8 weeks were purchased from the model animal research center of nanjing university and bred in a specific non-pathogenic environment. A xenograft model was established by subcutaneous injection of SW620 cells […] DMEM into the right wing (18–22 g) of nude mice. […]. Vehicle treatment groups were treated with polyethylene glycol (containing 1% DMSO). […] After administration, weighed every two days and measured tumor volume with a vernier caliper. […]

T1 sequence (P23219 24-599): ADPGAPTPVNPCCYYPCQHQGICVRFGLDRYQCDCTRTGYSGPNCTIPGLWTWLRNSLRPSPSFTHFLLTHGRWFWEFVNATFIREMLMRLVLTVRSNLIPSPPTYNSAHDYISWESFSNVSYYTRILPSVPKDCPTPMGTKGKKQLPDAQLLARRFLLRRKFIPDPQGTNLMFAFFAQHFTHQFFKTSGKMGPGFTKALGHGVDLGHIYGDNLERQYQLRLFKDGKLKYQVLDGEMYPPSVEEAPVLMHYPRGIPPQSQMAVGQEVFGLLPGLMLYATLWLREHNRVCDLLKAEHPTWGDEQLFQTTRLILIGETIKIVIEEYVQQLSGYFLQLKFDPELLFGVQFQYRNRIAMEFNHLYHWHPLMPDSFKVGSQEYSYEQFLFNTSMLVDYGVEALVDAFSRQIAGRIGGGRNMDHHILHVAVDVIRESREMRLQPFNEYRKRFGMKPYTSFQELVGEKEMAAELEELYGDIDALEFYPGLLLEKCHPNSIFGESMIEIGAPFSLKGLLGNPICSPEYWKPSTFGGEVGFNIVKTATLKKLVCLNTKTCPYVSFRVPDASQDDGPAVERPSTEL

| IC50 (COX-1) [nM] | Selectivity Index (SI) (COX-1 IC50/COX-2 IC50) (COX-2; in vitro COX-2 selectivity index) | IC50 (COX-2; mean of four determinations, read-out: IC50 ± SD COX-2) [nM] | IC50 (SW620 cells [1]) [nM] | IC50 (MCF-7) [nM] | IC50 (HeLa) [nM] | IC50 (A549) [nM] | IC50 (HepG2) [nM] | melting point [°C] | Structure (SMILES) | CC50 at 48 h [2] [nM] | percentage of cell apoptosis (SW620 cells [3]; SW620, 2.0 μM) [%] | percentage of cell apoptosis (SW620 cells [3]; SW620, 4.0 μM) [%] | percentage of cell apoptosis (SW620 cells [3]; SW620, 8.0 μM) [%] | tumor volume after 12 days of treatment [4] [mm^3] |
| --- | --- | --- | --- | --- | --- | --- | --- | --- | --- | --- | --- | --- | --- | --- |
| 48060 ± 350 | 137.3 | 350 ± 20 | 860 ± 20 | 2990 ± 130 | 2980 ± 170 | 1940 ± 60 | 2960 ± 140 | 200 to 201 | Cc1ccc(C2=NN(c3ccc(S(N)(=O)=O)cc3)C(c3ccc4c(c3)OCO4)C2)cc1 (stereo not drawn) [Compound 4b, 4-(5-(Benzo[d][1,3]dioxol-5-yl)-3-(p-tolyl)-4,5-dihydro-1H-pyrazol-1-yl)benzenesulfonamide] | 134000 ± 7850 | 19.9 | 45.9 | 65.0 | 43.71 |
| – | – | – | – | – | – | – | – | – | Cc1ccc(-c2cc(C(F)(F)F)nn2-c2ccc(S(N)(=O)=O)cc2)cc1 [Celecoxib, reference compound] | – | – | – | – | 51.69 |
